Reference: patent US7855216B2, “Aza-indolyl compounds and methods of use” (Genentech, Inc., priority 2006, dated 2010)

Tests used:
[1] = system: HCT116 and A375 cell lines; assay: Cell proliferation assay (CellTiter-Glo); format: cell-based; conditions: Homo sapiens; in either cell line (HCT116 or A375); 72 h exposure
Experimental: Compounds are tested in a cell proliferation assay using the following cell lines:
(§1) Both cell lines are maintained in DMEM/F12 (1:1) media (Gibco) supplemented with 10% FCS at 37° C. in a 5% CO2 humidified incubator.
Cells are seeded in 96-well plates at 2,000 cells/well and after 24 hours they are exposed to different concentrations of compounds in 0.83% DMSO. Cells are grown for a further 72 h, and an equal volume of CellTiter-Glo reagent (Promega) is added to each well. This lyses the cells and generates a luminescent signal proportional to the amount of ATP released (and therefore proportional to the number of cells in the well) that can be detected using a multi-well luminometer.
The EC50 is defined as the concentration at which a given compound achieves 50% inhibition of control. IC50 values are calculated using the XLfit software package (version 2.0.5).

[2] = system: phospho-ERK in HCT116 and A375 cell lines; assay: Phospho-ERK cell-based assay; conditions: Homo sapiens; in either cell line (HCT116 or A375); 2 h or 24 h exposure
Experimental: Compounds are tested in a cell-based phospho-ERK ELISA using the following cell lines:
as §1
Cells are seeded in 96-well plates at 2,000 cells/well and after 24 h they are exposed to different concentrations of compounds in 0.83% DMSO. Cells are grown for a further 2 h or 24 h, fixed with formaldehyde (2% final) and permeabilised with methanol. Following blocking with TBST-3% BSA, fixed cells are incubated with primary antibody (anti-phospho ERK from rabbit) over-night at 4° C. Cells are incubated with Propidium Iodide (DNA fluorescent dye) and detection of cellular p-ERK is performed using an anti-rabbit secondary antibody conjugated to the fluorescent Alexa Fluor 488 dye (Molecular probes). The fluorescence is analysed using the Acumen Explorer (TTP Labtech), a laser-scanning microplate cytometer, and the Alexa Fluor 488 signal is normalised to the PI signal (proportional to cell number).
The EC50 is defined as the concentration at which a given compound achieves a signal half way between the baseline and the maximum response. EC50 values are calculated using the XLfit software package (version 2.0.5).

Row | Structure (SMILES) | EC50 [1] [µM] | EC50 [2] [µM]
1 | C#CCn1c(C(=O)NOCCO)c(Nc2ccc(I)cc2F)c2cnccc21 [Example 64, 3-(2-Fluoro-4-iodo-phenylamino)-1-prop-2-ynyl-1H-pyrrolo[3,2-c]pyridine-2-carboxylic acid (2-hydroxy-ethoxy)-amide] | < 10 | < 10
2 | COc1ccc(Cn2c(C(N)=O)c(Nc3ccc(I)cc3F)c3cnccc32)cc1 [Example 17] | – | < 10
3 | O=C(NOCCO)c1c(Nc2ccc(I)cc2F)c2cnccc2n1Cc1ccccc1 [Example 24] | < 10 | < 10
4 | N#Cc1cccc(Cn2c(C(=O)NOCCO)c(Nc3ccc(I)cc3F)c3cnccc32)c1 [Example 48] | < 10 | < 10
5 | COCCn1c(C(=O)NOCCO)c(Nc2ccc(I)cc2F)c2cnccc21 [Example 7] | < 10 | < 10
6 | C[C@H](O)CONC(=O)c1c(Nc2ccc(I)cc2F)c2cncc(F)c2n1C [Example 54] | < 10 | < 10
7 | CN(C)C(=O)c1cccc(Cn2c(C(=O)NOCCO)c(Nc3ccc(I)cc3F)c3cnccc32)c1 [Example 45] | < 10 | < 10
8 | CSc1ccc(Nc2c(C(=O)NOC(C)(C)CO)n(C)c3ccncc23)c(F)c1 [Example 57] | < 10 | < 10
9 | O=C(NOCCO)c1c(Nc2ccc(I)cc2F)c2cnccc2n1CC1CC1 [Example 23] | < 10 | < 10
10 | CSc1ccc(Nc2c(C(=O)NOCCO)n(C)c3ccncc23)c(F)c1 [Example 56] | < 10 | < 10
11 | CSc1ccc(Nc2c(C(=O)NOC(C)(C)CO)[nH]c3ccncc23)c(F)c1 [Example 59, 3-(2-Fluoro-4-methylsulfanyl-phenylamino)-1H-pyrrolo[3,2-c]pyridine-2-carboxylic acid (2-hydroxy-1,1-dimethyl-ethoxy)-amide semiformate] | < 10 | < 10
12 | O=C(NOCCO)c1c(Nc2ccc(I)cc2F)c2cnccc2n1Cc1ccc(C(F)(F)F)cc1 [Example 43] | < 10 | < 10
13 | O=C(NOCCO)c1[nH]c2c(F)cncc2c1Nc1ccc(I)cc1F [Example 49] | < 10 | < 10
14 | O=C(NOCCO)c1c(Nc2ccc(I)cc2F)c2cnccc2n1C1CC1 [Example 61, 1-Cyclopropyl-3-(2-fluoro-4-iodo-phenylamino)-1H-pyrrolo[3,2-c]pyridine-2-carboxylic acid (2-hydroxy-ethoxy)-amide] | < 10 | < 10
15 | O=C(NOCCO)c1c(Nc2ccc(I)cc2F)c2cnccc2n1CCc1ccccc1 [Example 31] | < 10 | < 10
16 | O=C(NOCCO)c1c(Nc2ccc(I)cc2F)c2cnccc2n1Cc1ccncc1 [Example 25] | < 10 | < 10
17 | O=C(NOCCO)c1c(Nc2ccc(I)cc2F)c2cnccc2n1CCCO [Example 41] | < 10 | < 10
18 | CN(C)C(=O)c1ccc(Cn2c(C(=O)NOCCO)c(Nc3ccc(I)cc3F)c3cnccc32)cc1 [Example 30] | – | < 10
19 | CN(C)S(=O)(=O)c1ccc(Cn2c(C(=O)NOCCO)c(Nc3ccc(I)cc3F)c3cnccc32)cc1 [Example 50] | – | < 10
20 | Cn1c(C(=O)NOCCO)c(Nc2ccc(I)cc2F)c2cncc(Cl)c21 [Example 39] | < 10 | < 10
21 | O=C(NOCCO)c1c(Nc2ccc(I)cc2F)c2cnccc2n1Cc1ccc(F)cc1 [Example 33] | < 10 | < 10
22 | N#Cc1ccc(Cn2c(C(=O)NOCCO)c(Nc3ccc(I)cc3F)c3cnccc32)s1 [Example 46] | < 10 | < 10
23 | CS(=O)(=O)c1ccc(Cn2c(C(=O)NOCCO)c(Nc3ccc(I)cc3F)c3cnccc32)cc1 [Example 29] | – | < 10

Row | Structure (SMILES) | EC50 [1] [µM] | EC50 [2] [µM]
24 | Cn1c(C(N)=O)c(Nc2ccc(I)cc2F)c2cnccc21 [Example 16] | < 10 | < 10
25 | CCn1c(C(=O)NOCCO)c(Nc2ccc(I)cc2F)c2cnccc21 [Example 11] | < 10 | < 10
26 | O=C(NOCCO)c1[nH]c2ccncc2c1Nc1ccc(I)cc1F [Example 10] | < 10 | < 10
27 | O=C(NOCC1CC1)c1[nH]c2ccncc2c1Nc1ccc(I)cc1F [Example 38] | < 10 | < 10
28 | CSc1ccc(Nc2c(C(=O)NOCCO)n(C3CC3)c3ccncc23)c(F)c1 [Example 62, 1-Cyclopropyl-3-(2-fluoro-4-methylsulfanyl-phenylamino)-1H-pyrrolo[3,2-c]pyridine-2-carboxylic acid (2-hydroxy-ethoxy)-amide] | – | < 10
29 | Cn1c(C(=O)NOCCO)c(Nc2ccc(I)cc2F)c2cncc(F)c21 [Example 37] | < 10 | < 10
30 | CN(C)S(=O)(=O)c1cccc(Cn2c(C(=O)NOCCO)c(Nc3ccc(I)cc3F)c3cnccc32)c1 [Example 47] | < 10 | < 10
31 | N#Cc1ccc(Cn2c(C(=O)NOCCO)c(Nc3ccc(I)cc3F)c3cnccc32)cc1 [Example 44] | < 10 | < 10
32 | O=C(NOCCO)c1c(Nc2ccc(I)cc2F)c2cnccc2n1Cc1cccnc1 [Example 26] | < 10 | < 10
33 | O=C(NOCCO)c1c(Nc2ccc(I)cc2F)c2cnccc2n1CC#CCO [Example 65, 3-(2-Fluoro-4-iodo-phenylamino)-1-(4-hydroxy-but-2-ynyl)-1-H-pyrrolo[3,2-c]pyridine-2-carboxylic acid (2-hydroxy-ethoxy)-amide] | < 10 | < 10
34 | Cn1c(C(=O)NOCC2CC2)c(Nc2ccc(I)cc2F)c2cnccc21 [Example 15] | < 10 | < 10
35 | Cn1c(C(=O)NO)c(Nc2ccc(I)cc2F)c2cnccc21 [Example 13] | < 10 | < 10
36 | CN(C)C(=O)c1ccc(Cn2c(C(=O)NOCCO)c(Nc3ccc(I)cc3F)c3cnccc32)cc1 [Example 42] | < 10 | –
37 | Cn1c(C(=O)NOCCO)c(Nc2ccc(I)cc2F)c2cnccc21 [Example 6, 3-(2-Fluoro-4-iodo-phenylamino)-1-methyl-1H-pyrrolo[3,2-c]pyridine-2-carboxylic acid (2-hydroxy-ethoxy)-amide] | < 10 | < 10
38 | COc1ccc(Cn2c(C(=O)NOCCO)c(Nc3ccc(I)cc3F)c3cnccc32)cc1 [Example 8] | < 10 | < 10
39 | O=C(NOCC(O)CO)c1c(Nc2ccc(I)cc2F)c2cnccc2n1C1CC1 (stereo not shown) [Example 63, 1-Cyclopropyl-3-(2-fluoro-4-iodo-phenylamino)-1H-pyrrolo[3,2-c]pyridine-2-carboxylic acid (2,3-dihydroxy-propoxy)-amide] | < 10 | < 10
40 | O=C(NOCCO)c1c(Nc2ccc(I)cc2F)c2cnccc2n1Cc1ccccc1F [Example 27] | < 10 | < 10
41 | CC(C)(C)ONC(=O)c1[nH]c2ccncc2c1Nc1ccc(I)cc1F [Example 40] | < 10 | < 10
42 | Cn1c(C(=O)NOC[C@H](O)CO)c(Nc2ccc(I)cc2F)c2cnccc21 [Example 5, 3-(2-Fluoro-4-iodo-phenylamino)-1-methyl-1H-pyrrolo[3,2-c]pyridine-2-carboxylic acid ((R)-2,3-dihydroxy-propoxy)-amide] | < 10 | < 10
43 | CSc1ccc(Nc2c(C(=O)NOC[C@H](C)O)n(C)c3ccncc23)c(F)c1 [Example 58] | < 10 | < 10
44 | O=C(NOCCO)c1[nH]c2c(Cl)cncc2c1Nc1ccc(I)cc1F [Example 34] | – | < 10
45 | O=C(NOCCO)c1c(Nc2ccc(I)cc2F)c2cnccc2n1Cc1cccc(C(F)(F)F)c1 [Example 28] | – | < 10
